Assay results reported in US20240140986A1, “SYNTHETIC URSOLIC ACID DERIVATIVES AND METHODS OF USE THEREOF” (REATA PHARMACEUTICALS, INC., priority 2021, published 2024).

Experiments:
[1] = test system: Nrf2 / ARE-dependent luciferase in AREc32 reporter cell line; test: AREc32 luciferase reporter activation (Nrf2 induction); type: cell-based, human; conditions: Homo sapiens, Arec32; Table 3; oleanolic acid derivative analogs; read-out: Avg ARE EC-2X
Protocol: Effect on Ludferase Reporter Activation. Nrf2 is a transcription factor that binds to the antioxidant response element (ARE) sequence in the promoter regions of its target genes. AREc32 reporter cell line (derived from human breast carcinoma MCF7 cells) was obtained was from CXR Bioscience Limited (Dundee, UK) and cultured in DMEM (low glucose) supplemented with 10% FBS, 1% penicillin/streptomycin, and 0.8 mg/ml Geneticin (G418). This cell line is stably transfected with a luciferase reporter gene under the transcriptional control of eight copies of the rat GSTA2 ARE sequence (5′-GTGACAAAGCA-3′) (Wang et al., 2006). Expression of Firefly luciferase from this reporter plasmid is controlled by binding of Nrf2 to these ARE sequences. Measurement of ARE-dependent luciferase activity allows quantitative assessment of Nrf2 induction. AREc32 cell line has previously been used in studies characterizing different Nrf2 activators (Dinkova-Kostova & Wang, 2011; Roubalová et al., 2016; Roubalová et al, 2017; Wu et al, 2012).
The effect of several compounds disclosed herein on luciferase reporter activation was assessed in the AREc32 reporter cell line (see Table 10 and Table 11). This cell line is derived from human breast carcinoma MCF-7 cells and is stably transfected with a luciferase reporter gene under the transcriptional control of eight copies of the antioxidant response element from the rat Gsta2 gene, an Nrf2 target gene (Frilling et al., 1990). AREc32 cells were plated in black 96-well plates in 200 μL media at 20,000 cells per well. Twenty-four hours after plating, cells were treated with vehicle (DMSO) or test compounds at concentrations ranging from 0.03 to 1000 nM for nineteen hours. Media was removed and 100 μL of 1:1 mixture of the One-Glo Luciferase assay reagent and culture medium was added to each well. After incubation for 5 min at room temperature, the luminescence signal was measured on a PHERAstar plate reader. The EC2X value was determined using Excel and GraphPad Prism software. The fold increase in luminescence signal for cells treated with each concentration of compound relative to cells treated with vehicle was determined and a dose-response curve was generated. The dose-response curve was fit using nonlinear regression analysis and used to extrapolate the EC2X value. The EC2X value is defined as the concentration of test compound required to increase the luminescence signal 2-fold above levels in vehicle-treated samples.

[2] = test system: IFNγ-induced NO production in RAW 264.7 cells; test: Nitric Oxide Suppression Assay (IFNγ-induced NO, Griess nitrite readout); type: cell-based, mouse; conditions: Mus musculus, RAW264.7, Table 3; oleanolic acid derivative analogs; read-out: Avg NO IC50
Protocol: Tissue Culture: RAW 264.7, a mouse macrophage cell line, was obtained from American Type Culture Collection (Manassas VA) and maintained in the log phase of growth in Roswell Park Memorial Institute Medium 1640 (RPMI 1640) supplemented with 10% heat inactivated fetal bovine serum and 1% penicillin-streptomycin. Cells were cultured and maintained in a humidified incubator at 37° C. under 5% C02. Cells were sub-cultured every 2-4 days. All cell culture supplies were obtained from Life Technologies (Grand Island, NY) and VWR (Radnor, PA).
Nitric Oxide Suppression Assay. RAW 264.7 cells were plated 1 day in advance of experimental treatments at a concentration of 30,000 cells per well onto Falcon-96 well clear bottom plates (Corning, NY) in a total volume of 200 μL per well using RPMI 1640 supplemented with 0.5% fetal bovine serum and 1% penicillin-streptomycin. The next day, cells were pretreated with compounds serially diluted from 1000×stocks. All compounds were dissolved in dimethyl sulfoxide (DMSO) usually at 10 mM stock solutions. Compounds were subsequently diluted in DMSO and RPMI 1640. Each well received a final concentration of 0.1% DMSO. Cells were pretreated for 2 hours and incubation at 37° C., followed by treatment with 20 ng/mL of interferon gamma (R&D Systems, Minneapolis, MN) per well for 24 hours. The next day, a nitrite standard was serially diluted from 100 μM to 1.6 μM in RPMI 1640. Afterwards, 50 μL of cell culture supernatant was transferred from each well into a new Falcon-96 well clear bottom plate. Nitrite was measured as surrogate for nitric oxide using Promega's Griess Detection Kit #G2930 (Madison, WI) which involves the addition of 50 μL of the provided sulfanilamide solution to each well of the transferred cell culture supernatant and standards, followed by a 10-minute incubation at room temperature. Next, 50 μL of the provided N-1-napthylethylenediamine dihydrochloride (NED) solution was added to the sulfanilamide reaction and incubated for 10 minutes at room temperature in the dark. Afterwards, air bubbles were removed using ethanol vapor and absorbance was measured using a Spectramax M2e plate reader with a wavelength set to 525 nm. Viability was assessed using WST-1 cell proliferation reagent from Roche (Basel, Switzerland). After media was removed for the Nitric Oxide suppression assay, 15 μL of WST-1 reagent was added to each well of cells. Plates were briefly mixed on an orbital shaker and the cells were incubated at 37° C. for 30-90 minutes. Absorbance was measured using a Spectramax M2e plate reader with wavelengths set to 440 nm and 700 nm.
For the ability of compounds to suppress the increase in nitric oxide release caused by interferon gamma, the absolute amount of nitrite that was produced in each well was extrapolated from the nitrite standards using a linear regression fit. All values were then normalized to the DMSO-interferon gamma treated wells and plotted as percent nitric oxide. IC50 values were calculated using Excel and/or GraphPad Prism (San Diego, CA).

| Structure (SMILES) | EC (2-fold) [1] [µM] | IC50 [2] [nM] |
| --- | --- | --- |
| CC1(C)CC[C@]2(c3nc(C4CC4)no3)CC[C@]3(C)[C@H](C(=O)C=C4[C@@]5(C)C=C(C#N)C(=O)C(C)(C)[C@@H]5CC[C@]43C)[C@@H]2C1 [CC2, reference compound] | 0.0437 | – |
| CCc1noc([C@]23CCC(C)(C)C[C@H]2[C@H]2C(=O)C=C4[C@@]5(C)C=C(C#N)C(=O)C(C)(C)[C@@H]5CC[C@@]4(C)[C@]2(C)CC3)n1 [CC4, reference compound] | 0.0214 | 5.3 |
| CN(C)Cc1noc([C@]23CCC(C)(C)C[C@H]2[C@H]2C(=O)C=C4[C@@]5(C)C=C(C#N)C(=O)C(C)(C)[C@@H]5CC[C@@]4(C)[C@]2(C)CC3)n1 [CC8, reference compound] | 0.00372 | 3.3 |
| CC1(C)CC[C@]2(c3nc(CO)no3)CC[C@]3(C)[C@H](C(=O)C=C4[C@@]5(C)C=C(C#N)C(=O)C(C)(C)[C@@H]5CC[C@]43C)[C@@H]2C1 [CC10, reference compound] | 0.00339 | 2.1 |
| CC1(C)CC[C@]2(CO)CC[C@]3(C)[C@H](C(=O)C=C4[C@@]5(C)C=C(C#N)C(=O)C(C)(C)[C@@H]5CC[C@]43C)[C@@H]2C1 [CC13, reference compound] | 0.00882 | 0.5 |
| CC1(C)CC[C@]2(CN3CCC3=O)CC[C@]3(C)[C@H](C(=O)C=C4[C@@]5(C)C=C(C#N)C(=O)C(C)(C)[C@@H]5CC[C@]43C)[C@@H]2C1 [CC14, reference compound] | 0.00524 | 1.1 |
| CC1(C)CC[C@]2(CN3CCCC3=O)CC[C@]3(C)[C@H](C(=O)C=C4[C@@]5(C)C=C(C#N)C(=O)C(C)(C)[C@@H]5CC[C@]43C)[C@@H]2C1 [CC15, reference compound] | 0.00666 | 1.1 |
| CC1(C)CC[C@]2(N)CC[C@]3(C)[C@H](C(=O)C=C4[C@@]5(C)C=C(C#N)C(=O)C(C)(C)[C@@H]5CC[C@]43C)[C@@H]2C1 [CC16, reference compound] | 0.0277 | 3.5 |
| CC1(C)CC[C@]2(CNC(=O)C3CC3)CC[C@]3(C)[C@H](C(=O)C=C4[C@@]5(C)C=C(C#N)C(=O)C(C)(C)[C@@H]5CC[C@]43C)[C@@H]2C1 [CC19, reference compound] | 0.00322 | 0.5 |
| CC1(C)CC[C@]2(CNC(=O)OC(C)(C)C)CC[C@]3(C)[C@H](C(=O)C=C4[C@@]5(C)C=C(C#N)C(=O)C(C)(C)[C@@H]5CC[C@]43C)[C@@H]2C1 [CC20, reference compound] | 0.0211 | 5 |
| CC1(C)CC[C@]2(CN)CC[C@]3(C)[C@H](C(=O)C=C4[C@@]5(C)C=C(C#N)C(=O)C(C)(C)[C@@H]5CC[C@]43C)[C@@H]2C1 [CC21, reference compound] | 0.0158 | 3.2 |
| CCC(=O)NC[C@]12CCC(C)(C)C[C@H]1[C@H]1C(=O)C=C3[C@@]4(C)C=C(C#N)C(=O)C(C)(C)[C@@H]4CC[C@@]3(C)[C@]1(C)CC2 [CC23, reference compound] | 0.00237 | 0.4 |
| [2H]C([2H])([2H])C(=O)NC[C@]12CCC(C)(C)C[C@H]1[C@H]1C(=O)C=C3[C@@]4(C)C=C(C#N)C(=O)C(C)(C)[C@@H]4CC[C@@]3(C)[C@]1(C)CC2 [CC24, reference compound] | 0.00296 | 0.5 |
| CNC(=O)NC[C@]12CCC(C)(C)C[C@H]1[C@H]1C(=O)C=C3[C@@]4(C)C=C(C#N)C(=O)C(C)(C)[C@@H]4CC[C@@]3(C)[C@]1(C)CC2 [CC26, reference compound] | 0.00275 | 0.5 |
| CC(=O)N(C)C[C@]12CCC(C)(C)C[C@H]1[C@H]1C(=O)C=C3[C@@]4(C)C=C(C#N)C(=O)C(C)(C)[C@@H]4CC[C@@]3(C)[C@]1(C)CC2 [CC35, reference compound] | 0.00681 | 0.8 |
| CNC(=O)N(C)C[C@]12CCC(C)(C)C[C@H]1[C@H]1C(=O)C=C3[C@@]4(C)C=C(C#N)C(=O)C(C)(C)[C@@H]4CC[C@@]3(C)[C@]1(C)CC2 [CC36, reference compound] | 0.00723 | – |
| CC1(C)CC[C@]2(CNCCO)CC[C@]3(C)[C@H](C(=O)C=C4[C@@]5(C)C=C(C#N)C(=O)C(C)(C)[C@@H]5CC[C@]43C)[C@@H]2C1 [CC40, reference compound] | 0.0218 | 7.5 |
| CC1(C)CC[C@]2(CN3CCOC3=O)CC[C@]3(C)[C@H](C(=O)C=C4[C@@]5(C)C=C(C#N)C(=O)C(C)(C)[C@@H]5CC[C@]43C)[C@@H]2C1 [CC41, reference compound] | 0.00512 | 1.7 |
| CC1(C)CC[C@]2(CN3CCOC3)CC[C@]3(C)[C@H](C(=O)C=C4[C@@]5(C)C=C(C#N)C(=O)C(C)(C)[C@@H]5CC[C@]43C)[C@@H]2C1 [CC42, reference compound] | 0.122 | 17.3 |
| CN1CCN(C[C@]23CCC(C)(C)C[C@H]2[C@H]2C(=O)C=C4[C@@]5(C)C=C(C#N)C(=O)C(C)(C)[C@@H]5CC[C@@]4(C)[C@]2(C)CC3)C1=O [CC44, reference compound] | 0.00607 | 1.2 |
| CC1(C)CC[C@]2(Cn3cncn3)CC[C@]3(C)[C@H](C(=O)C=C4[C@@]5(C)C=C(C#N)C(=O)C(C)(C)[C@@H]5CC[C@]43C)[C@@H]2C1 [CC47, reference compound] | 0.0107 | 1.2 |
| Cc1cn(C[C@]23CCC(C)(C)C[C@H]2[C@H]2C(=O)C=C4[C@@]5(C)C=C(C#N)C(=O)C(C)(C)[C@@H]5CC[C@@]4(C)[C@]2(C)CC3)nn1 [CC49, reference compound] | 0.0138 | – |
| CC1(C)CC[C@]2(Cn3ccnn3)CC[C@]3(C)[C@H](C(=O)C=C4[C@@]5(C)C=C(C#N)C(=O)C(C)(C)[C@@H]5CC[C@]43C)[C@@H]2C1 [CC50, reference compound] | 0.00957 | 1.1 |
| CC1(C)CC[C@]2(CN3CCC3)CC[C@]3(C)[C@H](C(=O)C=C4[C@@]5(C)C=C(C#N)C(=O)C(C)(C)[C@@H]5CC[C@]43C)[C@@H]2C1 [CC55, reference compound] | 0.022 | – |
| CC1(C)CC[C@]2(N3CCCC3=O)CC[C@]3(C)[C@H](C(=O)C=C4[C@@]5(C)C=C(C#N)C(=O)C(C)(C)[C@@H]5CC[C@]43C)[C@@H]2C1 [CC58, reference compound] | 0.0379 | – |
